Assay results as given in patent publication US5223526A, “Pyrazole carboxanilide fungicides and use” (Monsanto Company, priority 1992, dated 1993).

What was measured:
succinate dehydrogenase = biological target: T1, succinate dehydrogenase (Botrytis cinerea, UniProt A0A384J5E4+A0A384J8V8+A0A384JHJ5); assay: Enzyme inhibition: succinate dehydrogenase activity in Botrytis cinerea mitochondria (DCPIP reduction); assay type: biochemical; conditions: concentration required to inhibit the rate of DCPIP reduction by 50%; Botrytis cinerea isolate Nick mitochondria; read-out: I50 (μM conc.)
T1 construct: succinate-DCPIP reductase assay with KCN
Description: Mitochondria were isolated by a method adapted from G.A. White [Biochem. Biophys. Res. Commun. 44: 1212, 1971]. Twenty to thirty grams of Botrytis cinerea isolate Nick were resuspended in 250 mL 0.25M sucrose, 5mM Na4 EDTA, pH 7.0 (+) 0.15% (w/v) bovine serum albumin (BSA) and placed in a Bead Beater chamber (Biospec Products, Bartlesville, Ok.). Zirconium oxide beads (0.5mm) were added to finish filling the chamber. Four 30 second beats separated by 2 minute temperature equilibration periods in the cold were used to break the mycelia. A crude mitochondrial preparation was harvested from the homogenate by differential centrifugation at 4° C. and resuspended in BSA-free sucrose/EDTA media and used for SDH assays.
The succinate dehydrogenase activity was measured at 600 nm in 50 mM potassium phosphate, pH 7.2, 1 mM KCN, 45 μM 2,6-dichlorophenolindophenol (DCPIP) and 17 mM disodium succinate (final volume, 1 mL) with a Perkin-Elmer Lambda 7 ultraviolet-visible spectrophotometer. The test compounds were added as acetone solutions (final concentration of acetone, 1% (v/v)). The mitochondrial preparatons were used to initiate the reaction. All rates were corrected for endogenous activities minus succinate. Semilog plots of percentage inhibition versus test compound concentration were used to determine inhibition expressed as I50 (μM) which is the concentration required to inhibit the rate of DCPIP reduction by 50%. The commercial fungicide carboxin was used as standard throughout.

Rhizoctonia solani = assay: Rice sheath blight; assay type: in vivo; parameters: scale not given here; conditions: inoculated two days later, rated after 7 days, average of five plants; for Disease Control Rating at 0.5 mg/mL: foliage and soil sprayed with 0.5 mg/mL; for Disease Control Rating at 0.02 mg/mL: foliage and soil sprayed with 0.02 mg/mL; for Disease Control Rating at 0.1 mg/mL: foliage and soil sprayed with 0.1 mg/mL
Description: Rice plants, 11 to 15 days old, are grown in 7.65 cm^2 pots. Each plant in the treatment groups is treated by spraying both the foliage and the soil surface, each with 2 mL of a water/acetone/Tween®20 formulation containing 0.5, 0.1, or 0.02 mg/mL of Compound A. The pots are placed in flood trays which are filled with water to just below the soil line. Two days later, approximately two grams of Rhizoctonia solani inoculum, cultured on rice grain for four to eight weeks, is applied to the base of the rice plants in each pot. After 7 days in a 25° C. high humidity growth chamber, each plant is evaluated for the level of disease contro as compared to untreated controls by the following scale and the average of five plants per treatment level is calculated.

Botrytis cinerea [1] = assay: Vine grey mold (grape berries); assay type: in vivo; conditions: average of six berries, 7-10 days; for pest or weed control at 50 ppm: grape berries treated with 50 ppm, read-out: % DISEASE CONTROL 50 ppm; for pest or weed control at 200 ppm: grape berries treated with 200 ppm, read-out: % DISEASE CONTROL 200 ppm
Description: Grape berries, which have been washed and surfaced sterilized in 70% ethanol for one minute, are, except for the negative controls, treated with 0.2 mL of a 2:3 acetone/water formulation (containing 0.05% Tween® 20) of 200 or 50 ppm of the test compounds and placed one per well in 12-well plates. Six berries per treatment level are used. Twenty-four hours later each berry is inoculated with Botrytis cinerea conidia, 0.2 mL of 10^6 spores/mL suspension. The plates are incubated at 20° C. with a 12 hours photoperiod for 7-10 days and the percent surface area infected with the disease is determined for each replicate using the values of 0, 1, 2, 5, 7, 10, 15, 20, 25, 30, 35, 40, 45, 50, 55, 60, 65, 70, 75, 80, 85, 90, 95, and 100%. Treatment means are calculated and percent disease control is determined by the formula [(control mean - treatment mean)/control means]×100.
Some of the compounds have been tested more than once and the results shown are the average of the number of tests reported.

Botrytis cinerea [2] = assay: Eggplant grey mold; assay type: in vivo; parameters: scale not given here; conditions: inoculated 24 h later, rated after 3-4 days; for Disease Control Rating at 500 ppm: eggplant sprayed with 500 ppm; for Disease Control Rating at 20 ppm: eggplant sprayed with 20 ppm; for Disease Control Rating at 100 ppm: eggplant sprayed with 100 ppm
Description: Eggplant seed are planted in 2.25" square pots, six per pot, and maintained in growth chambers set at 23° C., 80% humidity, and 12 h photoperiod. When the plants are at the cotyledon stage (14-18 days afterplanting), the plants are sprayed with 1.5 mL/pot of 500, 100 or 20 ppm 2:3 acetone:water (with 0.5% Tween® 20) formulations of the test compounds.
Twenty-four hours later the plants are inoculated with Botrytis cinerea, approximately 0.5 mL/pot of a 4×10^6 spore/mL suspension. The plantes are incubated at 23° C. and 100% humidity for 3-4 days, at which time disease control ratings are made based on presence and severity of Botrytis lesions.

T1 sequence (A0A384J5E4 1-300): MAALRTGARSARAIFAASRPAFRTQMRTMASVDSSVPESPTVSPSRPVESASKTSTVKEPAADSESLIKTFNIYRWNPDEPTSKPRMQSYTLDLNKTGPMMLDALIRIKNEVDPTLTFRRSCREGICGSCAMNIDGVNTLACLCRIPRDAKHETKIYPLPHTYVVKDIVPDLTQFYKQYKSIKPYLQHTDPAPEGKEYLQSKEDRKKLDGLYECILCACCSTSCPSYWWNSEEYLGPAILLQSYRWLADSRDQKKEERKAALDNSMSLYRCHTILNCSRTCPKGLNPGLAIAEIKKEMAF
T1 sequence (A0A384J8V8 1-189): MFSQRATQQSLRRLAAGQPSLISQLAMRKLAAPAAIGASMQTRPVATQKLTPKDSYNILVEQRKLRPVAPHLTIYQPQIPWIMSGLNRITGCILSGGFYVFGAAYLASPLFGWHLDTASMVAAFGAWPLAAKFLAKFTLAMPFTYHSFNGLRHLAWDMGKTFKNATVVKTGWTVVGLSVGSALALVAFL
T1 sequence (A0A384JHJ5 1-192): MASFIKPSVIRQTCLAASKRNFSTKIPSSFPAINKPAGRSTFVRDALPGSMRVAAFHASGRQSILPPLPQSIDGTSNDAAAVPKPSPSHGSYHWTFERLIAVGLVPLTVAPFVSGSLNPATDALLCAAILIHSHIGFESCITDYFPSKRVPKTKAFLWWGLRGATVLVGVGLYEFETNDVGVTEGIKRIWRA
T1 sequence (A0A384K456 1-647 partner): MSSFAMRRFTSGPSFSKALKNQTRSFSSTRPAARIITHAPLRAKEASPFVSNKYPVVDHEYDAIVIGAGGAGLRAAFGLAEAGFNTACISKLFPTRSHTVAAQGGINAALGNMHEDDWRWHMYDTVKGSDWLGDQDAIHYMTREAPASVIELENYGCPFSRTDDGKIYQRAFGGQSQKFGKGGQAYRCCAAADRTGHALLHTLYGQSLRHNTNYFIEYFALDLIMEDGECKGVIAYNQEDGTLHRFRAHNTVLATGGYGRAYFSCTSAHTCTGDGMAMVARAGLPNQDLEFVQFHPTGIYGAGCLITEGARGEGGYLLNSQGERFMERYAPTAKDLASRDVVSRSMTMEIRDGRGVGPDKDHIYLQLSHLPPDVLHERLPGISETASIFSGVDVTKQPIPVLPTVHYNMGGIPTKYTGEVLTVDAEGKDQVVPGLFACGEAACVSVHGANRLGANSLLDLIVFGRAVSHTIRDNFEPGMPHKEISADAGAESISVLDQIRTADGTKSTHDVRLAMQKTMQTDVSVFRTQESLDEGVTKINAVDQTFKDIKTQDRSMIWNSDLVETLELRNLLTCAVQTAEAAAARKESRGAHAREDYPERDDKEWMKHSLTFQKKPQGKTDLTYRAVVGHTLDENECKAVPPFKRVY

Which IC50 (succinate dehydrogenase) does the source give for `Cn1cc(C(=O)Nc2ccccc2C2CCCC2)c(C(F)F)n1` [Example 7, 1H-pyrazole-4-carboxamide, N-(2-cyclopentylphenyl)-3-(difluoromethyl)-1-methyl-] here?
Its IC50 is 0.0072 µM.

What about the “Disease Control Rating at 0.5 mg/mL” value (Rhizoctonia solani) of the same compound?
Its value is 1.

And the pest or weed control at 50 ppm (Botrytis cinerea [1])?
The pest or weed control at 50 ppm was 72%.

And the pest or weed control at 200 ppm (Botrytis cinerea [1])?
The pest or weed control at 200 ppm was 86%.

What about the “Disease Control Rating at 500 ppm” value (Botrytis cinerea [2]) of the same compound?
The value was 0.

What does the source list for `Cn1cc(C(=O)Nc2ccccc2C2CCCC2)c(C(F)(F)F)n1` [Example 8, 1H-pyrazole-4-carboxamide, N-(2-cyclopentylphenyl)-1-methyl-3-(trifluoromethyl)-]?
IC50 (succinate dehydrogenase): 0.016 µM; Disease Control Rating at 0.5 mg/mL (Rhizoctonia solani): 0; pest or weed control at 50 ppm (Botrytis cinerea [1]): 37%; pest or weed control at 200 ppm (Botrytis cinerea [1]): 83%; Disease Control Rating at 500 ppm (Botrytis cinerea [2]): 0

With `Cn1cc(C(=O)Nc2ccccc2C2CCCCCC2)c(C(F)F)n1` [Example 9, 1H-pyrazole-4-carboxamide, N-(2-cycloheptylphenyl)-3-(difluoromethyl)-1-methyl-] as the compound, how does the IC50 (succinate dehydrogenase) read?
Its IC50 is 0.0019 µM.

What about the “Disease Control Rating at 0.02 mg/mL” value (Rhizoctonia solani) of the same compound?
The value was 3.

And the “Disease Control Rating at 0.1 mg/mL” value (Rhizoctonia solani)?
Its value is 3.

What about the “Disease Control Rating at 0.5 mg/mL” value (Rhizoctonia solani) of the same compound?
The value was 3.

What about the pest or weed control at 50 ppm (Botrytis cinerea [1]) of the same compound?
The pest or weed control at 50 ppm was 94%.

And the pest or weed control at 200 ppm (Botrytis cinerea [1])?
Its pest or weed control at 200 ppm is 89%.

What about the “Disease Control Rating at 20 ppm” value (Botrytis cinerea [2]) of the same compound?
Its value is 0.

And the “Disease Control Rating at 100 ppm” value (Botrytis cinerea [2])?
Its value is 2.

And the “Disease Control Rating at 500 ppm” value (Botrytis cinerea [2])?
Its value is 2.

For `Cn1cc(C(=O)Nc2ccccc2C2CCCCCC2)c(C(F)(F)F)n1` [Example 10, 1H-pyrazole-4-carboxamide, N-(2-cycloheptylphenyl)-1-methyl-3-(trifluoromethyl)-], which IC50 (succinate dehydrogenase) is on record?
The IC50 was 0.003 µM.

And the “Disease Control Rating at 0.02 mg/mL” value (Rhizoctonia solani)?
The value was 2.

And the “Disease Control Rating at 0.1 mg/mL” value (Rhizoctonia solani)?
Its value is 3.

What about the “Disease Control Rating at 0.5 mg/mL” value (Rhizoctonia solani) of the same compound?
Its value is 3.

And the pest or weed control at 50 ppm (Botrytis cinerea [1])?
Its pest or weed control at 50 ppm is 87%.

What about the pest or weed control at 200 ppm (Botrytis cinerea [1]) of the same compound?
Its pest or weed control at 200 ppm is 85%.

And the “Disease Control Rating at 20 ppm” value (Botrytis cinerea [2])?
The value was 2.

What about the “Disease Control Rating at 100 ppm” value (Botrytis cinerea [2]) of the same compound?
The value was 2.

And the “Disease Control Rating at 500 ppm” value (Botrytis cinerea [2])?
Its value is 2.

How did the IC50 (succinate dehydrogenase) turn out when `Cn1cc(C(=O)Nc2ccc(F)cc2C2CCCCC2)c(C(F)F)n1` [Example 11, 1H-pyrazole-4-carboxamide, N-(2-cyclohexyl-4-fluorophenyl)-3-(difluoromethyl)-1-methyl-] was run?
The IC50 was 0.0054 µM.

What about the “Disease Control Rating at 0.02 mg/mL” value (Rhizoctonia solani) of the same compound?
The value was 1.

What about the “Disease Control Rating at 0.1 mg/mL” value (Rhizoctonia solani) of the same compound?
The value was 3.

What about the “Disease Control Rating at 0.5 mg/mL” value (Rhizoctonia solani) of the same compound?
The value was 3.

What about the pest or weed control at 50 ppm (Botrytis cinerea [1]) of the same compound?
Its pest or weed control at 50 ppm is 75%.

What about the pest or weed control at 200 ppm (Botrytis cinerea [1]) of the same compound?
The pest or weed control at 200 ppm was 92%.

What about the “Disease Control Rating at 20 ppm” value (Botrytis cinerea [2]) of the same compound?
The value was 2.

And the “Disease Control Rating at 100 ppm” value (Botrytis cinerea [2])?
The value was 2.

What about the “Disease Control Rating at 500 ppm” value (Botrytis cinerea [2]) of the same compound?
Its value is 3.

With `Cn1cc(C(=O)Nc2ccc(F)cc2C2CCCCC2)c(C(F)(F)F)n1` [Example 12, 1H-pyrazole-4 carboxamide, N-(2-cyclohexyl-4-fluorophenyl)-1-methyl-3-(trifluoromethyl)-] as the compound, how does the IC50 (succinate dehydrogenase) read?
The IC50 was 0.0089 µM.

What about the “Disease Control Rating at 0.5 mg/mL” value (Rhizoctonia solani) of the same compound?
Its value is 2.

And the pest or weed control at 50 ppm (Botrytis cinerea [1])?
The pest or weed control at 50 ppm was 58%.

What about the pest or weed control at 200 ppm (Botrytis cinerea [1]) of the same compound?
The pest or weed control at 200 ppm was 59%.

What about the “Disease Control Rating at 20 ppm” value (Botrytis cinerea [2]) of the same compound?
The value was 1.

And the “Disease Control Rating at 100 ppm” value (Botrytis cinerea [2])?
The value was 1.

What about the “Disease Control Rating at 500 ppm” value (Botrytis cinerea [2]) of the same compound?
Its value is 3.

What does the source list for `Cc1nn(C)cc1C(=O)Nc1ccccc1C1CCCCCC1` [Example 13, 1H-pyrazole-4-carboxamide, N-(2-cycloheptylphenyl)-1,3-dimethyl-]?
IC50 (succinate dehydrogenase): 0.011 µM; Disease Control Rating at 0.02 mg/mL (Rhizoctonia solani): 2; Disease Control Rating at 0.1 mg/mL (Rhizoctonia solani): 3; Disease Control Rating at 0.5 mg/mL (Rhizoctonia solani): 3; pest or weed control at 50 ppm (Botrytis cinerea [1]): 63%; pest or weed control at 200 ppm (Botrytis cinerea [1]): 66%; Disease Control Rating at 20 ppm (Botrytis cinerea [2]): 1; Disease Control Rating at 100 ppm (Botrytis cinerea [2]): 1; Disease Control Rating at 500 ppm (Botrytis cinerea [2]): 3

What does the source list for `C=CCn1cc(C(=O)Nc2ccccc2C2CCCCC2)c(C(F)F)n1` [Example 14, 1H-pyrazole-4-carboxamide, N-(2-cyclohexylphenyl)-3-(difluoromethyl)-1-(2-propenyl)-]?
IC50 (succinate dehydrogenase): 0.29 µM; Disease Control Rating at 0.5 mg/mL (Rhizoctonia solani): 1; pest or weed control at 50 ppm (Botrytis cinerea [1]): 0%; pest or weed control at 200 ppm (Botrytis cinerea [1]): 0%; Disease Control Rating at 500 ppm (Botrytis cinerea [2]): 0

How did the IC50 (succinate dehydrogenase) turn out when `O=C(Nc1ccccc1C1CCCCC1)c1c[nH]nc1C(F)F` [Example 15, 1H-pyrazole-4-carboxamide, N-(2-cyclohexylphenyl)-3-(difluoromethyl)-] was run?
The IC50 was 0.014 µM.

What about the “Disease Control Rating at 0.5 mg/mL” value (Rhizoctonia solani) of the same compound?
Its value is 0.

What about the pest or weed control at 50 ppm (Botrytis cinerea [1]) of the same compound?
Its pest or weed control at 50 ppm is 36%.

And the pest or weed control at 200 ppm (Botrytis cinerea [1])?
The pest or weed control at 200 ppm was 89%.

What about the “Disease Control Rating at 20 ppm” value (Botrytis cinerea [2]) of the same compound?
The value was 2.

And the “Disease Control Rating at 100 ppm” value (Botrytis cinerea [2])?
Its value is 3.

And the “Disease Control Rating at 500 ppm” value (Botrytis cinerea [2])?
Its value is 2.
